Measured values taken from patent publication US20040200144A1, “Plant growth regulator and a method of producing the regulator” (Dainichiseika Color & Chemicals Mfg. Co., Ltd., priority 2003, published 2004).

Legend:
Type in all cases: in vivo
geranium young plants = assay: Dwarfing test of geranium young plant; conditions: for Plant Height / Dwarfing Rate: 100 ml per pot on 3rd day, measured 44th day; for Dwarfing Rate: vs comparative group
Description: Dwarfing rate (%)=[(the plant height of the comparative group)−(the plant height of an addition group)/the plant height of the comparative group]×100 In addition, “plant height” in all the tables below was an average of heights from a surface of the soil of a pot used in each test to a head portion of the plant. 160 g of cinnamic acid, 80 g of dispersant (lignin sulfonic sodium) and 293 g of water were mixed, 1,800 g of glass beads (with diameters of 1 to 1.25 mm) were further added, the resultant was added into a vessel of a dispersion apparatus (RM test sand mill with six parallel barrels) and underwent dispersion processing at 120 rpm for three hours, and 30% cinnamic acid dispersion (with the average diameter of cinnamic acid of 0.3 μm) was prepared. The dispersion was diluted with distilled water 300 times or 3,000 times, and thus 0.1% cinnamic acid dispersion and 0.01% cinnamic acid dispersion were prepared, respectively. 30 pots of geranium young plants each with 10 to 12 leaves and a height of 7 cm ware purchased, and placed in a built-up indoor aluminum greenhouse (440×840×1500 mm) at 25° C. On the 3rd day, the cinnamic dispersions as described above were added to the geranium pots. Among 30 pots, 10 pots were prepared as a 0.01% cinnamic acid dispersion addition group, and 100 ml of the 0.01% cinnamic acid dispersion was added to the nursery soil of each pot. Another 10 pots were prepared as a 0.1% cinnamic acid dispersion addition group, and 100 ml of the 0.1% cinnamic acid dispersion was added to the nursery soil of each pot. Remaining 10 pots were prepared as a comparative group, and instead of the cinnamic dispersion, 100 ml of water was added to each pot. Then, the cultivation was continued on the pots in each group under general conditions. The cultivation was continued on geraniums of the pots in each group, and on the 24th day, geraniums in each group started blooming. The cultivation was further continued. On the 44th day after the placement, heights of geraniums of pots in each group were measured, the dwarfing rate (%) was calculated, and the dwarfing effect of cinnamic acid dispersion on geranium young plants was examined. From the results in Table 2, it became evident that the cinnamic acid dispersions are effective in dwarfing geranium young plants.

hydrangea young plants = assay: Dwarfing test of hydrangea young plant; conditions: for Plant Height / Dwarfing Rate: 100 ml per pot on 42nd day, measured 72nd day; for Dwarfing Rate: vs comparative group
Method: Dwarfing rate (%)=[(the plant height of the comparative group)−(the plant height of an addition group)/the plant height of the comparative group]×100 […] A cutting of a fresh shoot of hydrangea was planted in the soil of each pot (diameter of 10.5 cm and depth of 8.5 cm) and cultivated continuously after the cuttage. On the 42nd day, top pinching was performed, a young plant was adjusted to have a height of 8 cm and four leaves and planted and fixed in a pot (diameter of 14.5 cm and depth of 14.5 cm) At this point, 100 ml of 0.2% or 0.4% cinnamic acid aqueous solution prepared as described above was added to the nursery soil of 8 pots, and thus 0.2% cinnamic acid aqueous solution addition group and 0.4% cinnamic acid aqueous solution addition group were prepared. Further, 8 pots were prepared as a comparative group on which general watering was performed. The cultivation of young plants of each group was continued. On the 72nd day, heights of young plants in each group were measured, the dwarfing rate (%) was calculated, and the dwarfing effect of cinnamic acid aqueous solution on hydrangea was examined. From the results in Table 26, it became evident that the cinnamic acid solutions are effective in dwarfing hydrangea young plants.

green onion young plants = assay: Dwarfing test of green onion young plant; conditions: for Plant Height / Dwarfing Rate: 5 ml per cell on 5th day, measured 27th day; for Dwarfing Rate: vs comparative group
Method: 50 g of sodium tripolyphosphate was dissolved in 400 ml of distilled water at 80° C., 17.5 g of cinnamic acid was added to the sodium tripolyphosphate solution and dissolved by stirring, the resultant solution was diluted with distilled water until the total volume of solution was 500 ml, and thus 3.5% cinnamic acid aqueous solution (pH 6.5) was prepared. The aqueous solution was further diluted with distilled water 70 times or 17.5 times, and 0.05% cinnamic acid aqueous solution and 0.2% cinnamic acid aqueous solution were prepared, respectively.
Nursery soil for house use was filled into paper joint pots (each with 24 cells: 34×43×50 mm/cell), water was sufficiently given to the soil, and seeds of carrots were sowed. After seeding, the pot was placed in the same greenhouse as described above to sprout. Subsequently, on the 5th day, the cinnamic aqueous acid solutions were added to the nursery soil in the joint pots. One of the joint pots (24 cells) was prepared as a 0.05% cinnamic acid aqueous solution addition group, and 5 ml of the 0.05% cinnamic acid aqueous solution was added to the nursery soil of each cell. Another one of the join pots was prepared as a 0.2% cinnamic acid aqueous solution addition group, and 5 ml of the 0.2% cinnamic acid aqueous solution was added to the nursery soil of each cell. The other one of the joint pots was prepared as a comparative group in which 5 ml of water is added to each cell, instead of the cinnamic acid aqueous solution. Subsequently, the cultivation of carrot young plants in each group was continued under general conditions. On the 27th day, the heights of young plants in each group were measured, the dwarfing rate (%) was calculated, and the dwarfing effect of cinnamic acid aqueous solution on carrot young plants was examined. […].
In the same way as in Example 5 except that seeds of green onion were sowed, the dwarfing effect of cinnamic acid aqueous solution on green onion young plants was examined. […]

In the case of `O=C(O)C=Cc1ccccc1` [cinnamic acid], the “Plant Height” value (geranium young plants; 0.01% dispersion) was 13.5 cm, the “Dwarfing Rate” value (geranium young plants; 0.01% dispersion) was 12.9% and the “Plant Height” value (geranium young plants; 0.1% dispersion) was 6.1 cm. The “Dwarfing Rate” value (geranium young plants; 0.1% dispersion) was 60.6%, the dwarfing effect (geranium young plants; geranium young plants, 0.01% and 0.1% dispersions) was “effective” and the “Plant Height” value (hydrangea young plants; 0.2% aqueous solution) was 15.1 cm. For the same compound, the “Dwarfing Rate” value (hydrangea young plants; 0.2% aqueous solution) was 2.6%, the “Plant Height” value (hydrangea young plants; 0.4% aqueous solution) was 11.7 cm and the “Dwarfing Rate” value (hydrangea young plants; 0.4% aqueous solution) was 24.5%. The dwarfing effect (hydrangea young plants; hydrangea young plants, 0.2% and 0.4% aqueous solutions) was “effective”, the “Plant Height” value (green onion young plants; 0.05% aqueous solution) was 7.2 cm and the “Dwarfing Rate” value (green onion young plants; 0.05% aqueous solution) was 25.8%. For the same compound, the “Plant Height” value (green onion young plants; 0.2% aqueous solution) was 5.6 cm, the “Dwarfing Rate” value (green onion young plants; 0.2% aqueous solution) was 42.3% and the dwarfing effect (green onion young plants; green onion young plants, 0.05% and 0.2% aqueous solutions) was “effective”.
